# Like-named read-outs stand apart in the source and are kept apart here.
# Key:
# [1] = system: HCV replicon in Huh7 cells; experiment: HCV replicon cell-based assay; parameters: species or system HCV strain 1B; settings: Hepatitis C virus, Huh-7, HCV replicon, Huh7 cells
# [2] = target: T1, human pancreatic chymotrypsin (Homo sapiens, UniProt P17538); experiment: Specificity assay, chymotrypsin; format: biochemical; settings: 2 hr pre-incubation
# T1 construct: purchased Sigma
# Procedure: (§1) The specificities of compounds of the present invention were determined against a variety of serine proteases: human leukocyte elastase (HLE), porcine pancreatic elastase (PPE) and human pancreatic chymotrypsin and one cysteine protease: human liver cathepsin B. In all cases a 96-well plate format protocol using colorimetric p -nitroaniline (pNA) substrate specific for each enzyme was used as described previously (Patent WO 00/09543) with some modifications to the serine protease assays. All enzymes were purchased from Sigma while the substrates were from Bachem.
# (§2) Each assay included a 2 hr enzyme-inhibitor pre-incubation at RT followed by addition of substrate and hydrolysis to ˜30% conversion as measured on a Spectramax Pro microplate reader. Compound concentrations varied from 100 to 0.4 μM depending on their potency. […]
# (§3) The percentage of inhibition was calculated using the formula: [1−((UVinh−UVblank)/(UVctl−UVblank))]×100 […]
# [3] = target: T2, porcine pancreatic elastase (PPE) (Sus scrofa, UniProt P00772); experiment: Specificity assay, PPE; format: biochemical; settings: 2 hr pre-incubation
# T2 construct: purchased Sigma
# Procedure: as §1, §2, §3
# [4] = target: T3, human liver cathepsin B (Homo sapiens, UniProt P07858); experiment: Specificity assay, cathepsin B; format: biochemical; settings: 2 hr pre-incubation
# T3 construct: purchased Sigma; host or cells: human liver (as named)
# Procedure: as §1, §2, §3
# [5] = target: T4, human leukocyte elastase (HLE) (Homo sapiens, UniProt P08246); experiment: Specificity assay, HLE; format: biochemical; settings: 2 hr pre-incubation
# T4 construct: purchased Sigma
# T4 sequence (P08246 30-267): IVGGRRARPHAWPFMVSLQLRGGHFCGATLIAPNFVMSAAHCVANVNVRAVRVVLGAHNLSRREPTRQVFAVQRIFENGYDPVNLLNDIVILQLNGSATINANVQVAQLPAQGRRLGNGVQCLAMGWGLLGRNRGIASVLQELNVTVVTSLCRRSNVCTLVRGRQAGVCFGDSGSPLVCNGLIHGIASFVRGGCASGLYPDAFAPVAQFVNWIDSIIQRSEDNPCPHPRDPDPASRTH
# Procedure: as §1, §2, §3
# T1 sequence (P17538 19-263): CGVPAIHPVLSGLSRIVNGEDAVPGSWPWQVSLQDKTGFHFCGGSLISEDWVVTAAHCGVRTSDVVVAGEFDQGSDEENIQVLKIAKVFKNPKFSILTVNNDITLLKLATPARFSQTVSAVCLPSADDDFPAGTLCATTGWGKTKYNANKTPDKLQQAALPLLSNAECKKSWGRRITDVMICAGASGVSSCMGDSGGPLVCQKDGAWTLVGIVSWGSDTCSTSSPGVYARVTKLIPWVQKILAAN
# T2 sequence (P00772 27-266): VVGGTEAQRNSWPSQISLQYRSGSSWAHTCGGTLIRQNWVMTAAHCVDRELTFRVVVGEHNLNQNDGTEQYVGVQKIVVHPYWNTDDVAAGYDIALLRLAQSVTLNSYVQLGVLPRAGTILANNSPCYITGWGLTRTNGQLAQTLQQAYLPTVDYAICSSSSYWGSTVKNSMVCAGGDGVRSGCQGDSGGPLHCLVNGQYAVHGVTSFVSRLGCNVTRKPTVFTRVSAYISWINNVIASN
structure (smiles),measurement,setting,value
C=C[C@@H]1C[C@]1(NC(=O)[C@@H]1C[C@@H](Oc2nc(C3CC3)cc3ccccc23)CN1C(=O)[C@@H](NC(=O)OC(C)(C)C)C(C)(C)C)C(=O)NS(=O)(=O)C1CC1 [Compound 34],EC50,[1]; read-out: EC50 range,0.1 to 1 µM
same,EC50,[1]; read-out: EC50 value in the replicon assay,0.166 µM
same,IC50,[2],> 200 µM
same,IC50,[3],> 200 µM
same,IC50,[4],> 200 µM
same,IC50,[5],> 100 µM

# From US7915291B2, “Hepatitis C virus inhibitors” (Bristol-Myers Squibb Company, priority 2002, dated 2011)
